Measurements from US4994450A, “Azacyclic compounds and their use as analgesic agents” (Dr. Lo. Zambeletti S.p.A., priority 1988, dated 1991).
Where a name gives a salt, the structure may show the parent alone.

Experiments:
mice [1] = assay: P-phenylquinone-induced abdominal writhing test in mice; assay type: in vivo, mouse (male Charles River, Swiss Strain); details: Mus musculus, sc; subcutaneous, 20 min pretreatment, p-phenylquinone 2 mg/Kg i.p.
Protocol: (A) P-phenylquinone-induced abdominal writing test in mice
The methodology employed is based on that described by Sigmund et al, Proc. Soc. Exptl. Biol. 95, 729/1957, modified by Milne and Twomey, Agents and Actions, 10, 31/1980.
Male Charles River mice (Swiss Strain), 25-36g body weight, were used. Animals were allowed food and water ad libitum and were randomized into groups of 10 prior to experimentation. Test compounds were dissolved in either distilled water or distilled water plus 0.1 M AMS, and administered by the subcutaneous route in a final volume of 10 ml/Kg. Control animals received 10 ml/Kg of the appropriate vehicle alone. Following a pretreatment period of 20 min., mice were injected intraperitoneally with p-phenylquinone, 2 mg/Kg at 37° C. in a final volume of […]. […] During this period the number of abdominal writhing responses per animal were recorded where writhing consists of an intermittent contraction of the abdomen associated with hind leg extension.
The degree of antinociceptive protection afforded by the test compound was determined as the mean number of writhing responses observed in the treated group (T) expressed as a percentage of the mean number of writhing responses in the control group (C) according to the following formula:
[1-(T/C]×100%=% graded protection

mice [2] = assay: Tail-flick test in mice; assay type: in vivo, mouse (male Charles River, Swiss Strain); details: subcutaneous, 30 min pretreatment
Protocol: (B) Tail-flick test in mice
The methodology employed is based on that described by D'Amour and Smith, J. Pharmacol. Exp. Ther. 72. 74/1941.
Male Charles River mice (Swiss Strain), 22-34g body weight were used. Animals were allowed food and water ad libitum and were randomized into groups of 10 prior to experimentation.
Test compounds were dissolved in either distilled water or distilled water plus 0.1 M AMS and administered by the subcutaneous route in a final volume of 10 ml/Kg. Control animals received 10 ml/kg of the appropriate vehicle alone. Following a pretreatment period of 30 min., the mice were again placed under the heat source and the reaction tine re-determined.
Percentage quantal protection was determined as the number of mice in which the reaction time was doubled compared to pretreatment values, expressed as a percentage of the total number of mice in the group.

[3] = target: T1, Mu opiate receptor (brain) (Cavia porcellus, UniProt A0ACM8Q262); assay: Opiate receptor binding, mu (brain); parameters: species or system guinea pig; details: 3H-DAGO, 40 min, 25° C.
T1 construct: [3H]DAGO (DAMGO) displacement
Protocol: (§1) Radio receptor binding to μ and K sites is performed on fresh guinea pig brain homogenate prepared according to Kosterlitz. (1981).
(§2) Whole brain without cerebellum is homogenized in 50 mM, Tris-buffer (pH 7.4 at 0° C.) and centrifuged at 49,000×g×10 min.
(§3) The pellet is then resuspended in the same buffer, incubated at 37° C. for 45 min. and centrifuged again.
(§4) 1.9 ml of the final homogenate (1:100 in Tris-pH 7.4, 0° C.) is used for the binding assay.
^3 H [D-Ala^2, MePhe^4, Gly-ol^5 ] Enkephalin (^3 H-DAGO), an enkephalin analogue that binds selectively to μ receptor, is added to the biological substrate and incubated at 25° C. for 40 min., filtered through Whatman GF-C and washed with ice-cold Tris-buffer.
The filters are then dryed, solubilized in Filtercount and the radioactivity monitored. Non specific binding is determined in the presence of 10^-6 M Naloxone.
(§5) The equilibrium dissociation constant (KD) and the maximum binding capacity (Bmax) are determined from the analysis of saturation curves, while the inhibition constant (Ki) is determined from the analysis of competition experiments (Hill 1910; Scatchard 1949; Cheng and Prusoff 1973; Gillan et al. 1980) Published references are summarised as follows: […]

[4] = target: T2, Kappa opiate receptor (spinal cord) (Cavia porcellus, UniProt P41144); assay: Opiate receptor binding, kappa (spinal cord)
T2 construct: spinal cord kappa-receptors; from tissue
Protocol: (§6) The binding to the K-sites is performed using ^3 H-Ethyl Ketocyclazocine, a non-selective benzomorphan compound which binds to μ, δ and K-sites, in the presence of 100nM of unlabelled DAGO and 100nM of the enkephalin analogue [DAla^2 -DLeu^5 ]Enkephalin (DADLE), to prevent μ and δ binding respectively.
Final homogenate with solutions of the cold ligand and of the labelled ligand is incubated for 40 min. at 25° C., filtered through Whatman GF/C glass filter discs and washed.
(§7) The radioactivity bound to the filters is counted by liquid scintillation spectrophotometry.
(§8) The non-specific binding is determined in the presence of 500nM of the benzomorphan non-selective compound Mr 2266.
as §5

[5] = target: T3, Kappa opiate receptor (brain) (Cavia porcellus, UniProt P41144); assay: Opiate receptor binding, kappa (brain); parameters: species or system guinea pig
T3 construct: performed on fresh guinea pig brain homogenate; from tissue; host or cells: guinea pig whole brain without cerebellum, homogenate
Protocol: as §1, §2, §3, §4
as §6, with “respectively. […]” for “respectively.”
as §7, §8, §5

T1 sequence (A0ACM8Q262 1-400): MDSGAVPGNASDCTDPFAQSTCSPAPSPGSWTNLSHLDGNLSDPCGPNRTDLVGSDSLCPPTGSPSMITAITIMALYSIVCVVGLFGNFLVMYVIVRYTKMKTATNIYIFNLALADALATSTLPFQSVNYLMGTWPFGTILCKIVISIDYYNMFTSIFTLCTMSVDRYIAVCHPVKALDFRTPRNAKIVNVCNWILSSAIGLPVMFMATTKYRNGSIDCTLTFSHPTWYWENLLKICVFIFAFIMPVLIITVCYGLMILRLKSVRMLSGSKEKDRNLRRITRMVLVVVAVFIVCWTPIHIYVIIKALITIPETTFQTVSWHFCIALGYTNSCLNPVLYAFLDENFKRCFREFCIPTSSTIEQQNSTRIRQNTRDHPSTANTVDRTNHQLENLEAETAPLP
T3 sequence (P41144 whole entry): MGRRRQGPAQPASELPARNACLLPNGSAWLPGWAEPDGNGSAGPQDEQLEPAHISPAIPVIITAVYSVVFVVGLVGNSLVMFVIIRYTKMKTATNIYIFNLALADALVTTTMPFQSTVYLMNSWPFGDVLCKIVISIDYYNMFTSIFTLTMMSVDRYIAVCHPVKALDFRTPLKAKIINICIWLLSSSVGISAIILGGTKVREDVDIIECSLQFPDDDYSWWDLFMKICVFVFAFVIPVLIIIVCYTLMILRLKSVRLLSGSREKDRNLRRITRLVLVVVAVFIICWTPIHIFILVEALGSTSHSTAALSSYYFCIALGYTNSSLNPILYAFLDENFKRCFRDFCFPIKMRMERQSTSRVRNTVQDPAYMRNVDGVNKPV
T2 sequence (P41144 whole entry): as above

For O=C1CCCc2cc(CC(=O)N3CCCCC3CN3CCCC3)ccc21 (stereo not drawn) [Example 1, 1-[1-oxo-3,4,-dihydro-(2H)-naphth-6-yl]acetyl-2-(pyrrolidin-1-yl)methyl-piperidine hydrochloride], which ED50 (mice [1]) is on record?
The ED50 was 0.235 mg/kg.

What about the “MOUSE TAIL-FLICK % Analgesia” value (mice [2]; dose 0.550 mg/kg) of the same compound?
The value was 50%.

What about the Ki [3] of the same compound?
Its Ki is greater than 1000 nM.

What about the Ki [4] of the same compound?
The Ki was 5.24 nM.

And the Ki [5]?
Its Ki is 81.7 nM.

What does the source list for O=C1CCCc2cc(CC(=O)N3CCCC[C@H]3CN3CCCC3)ccc21 [Example 2, (2S)-1-[1-oxo-3,4,-dihydro-(2H)-naphth-6-yl]acetyl-2-(pyrrolidin-1-yl)methyl-piperidine hydrochloride]?
ED50 (mice [1]): 0.138 mg/kg; MOUSE TAIL-FLICK % Analgesia (mice [2]; dose 0.233 mg/kg): 50%; Ki [3]: 2980 nM; Ki [4]: 2.21 nM; Ki [5]: 49 nM

Which “MOUSE TAIL-FLICK % Analgesia” value (mice [2]; dose 8.6 mg/kg) does the source give for CC(=O)c1ccc(CC(=O)N2CCCC[C@H]2CN2CCCC2)cc1C [Example 4, (2S)-1-(3-methyl-4-acetylphenyl)acetyl-2-(pyrrolidin-1-yl)methyl-piperidinehydrochloride hydrate] here?
The value was 80%.

For O=C1CCCc2ccc(CC(=O)N3CCCC[C@H]3CN3CCCC3)cc21 [Example 6, (2S)-1-[1-oxo-3,4-dihydro-(2H)-naphth-7-yl] acetyl-2-(pyrrolidin-1-yl)methyl-piperidine hydrochloride], which “MOUSE TAIL-FLICK % Analgesia” value (mice [2]; dose 10 mg/kg) is on record?
The value was 80%.
